Experiment [1] addresses T1, CB2/CHO cell membrane proteins (Homo sapiens, UniProt P34972).
T1 construct: expressed in transfected cells; host or cells: CHO cells (membranes)
The experiment in a line: GTPgS binding assay. In kind it is biochemical. The conditions noted are these: [35S]GTPγS, CB2/CHO cell membranes. On the procedure: Add 50 ul of reaction mixture containing 2 ug of CB2/CHO cell membrane proteins, 10 ul WGA-PVT beads (20 mg/ml), and 5 uM GDP in assay buffer (20 mM HEPES pH 7.4, 100 mM NaCl, 1 mM EDTA, 10 mM MgCl2, 10 ug/ml saponin, 0.25% BSA, and 1 uM leupeptin) into each well in 96 well white plate (Corning 3693, VWR#29444-312). Add 1 ul of testing compound into test, 1 ul of DMSO into basal, 1 ul of 200 uM CP55,940 into 100% activation, 1 ul of 1 mM cold GTPγS into NSB wells, respectively. Dilute [^35S]GTPγS (1:12.5 pre-diluted 1 uCi/ul stock, NEG030H, NEN) 1:1350 in binding buffer and add 25 ul into each well (200 pM final). Incubate at RT for 90 min and spin the plate at 1000 rpm for 5 min before counting with TopCount for 1-2 min.

Another experiment addresses T2, hCB2 receptors (Homo sapiens, UniProt P34972).
T2 construct: expressed in transfected cells; host or cells: CHO cells
The experiment can be described thus: Filtration binding assay, [3H]CP55,940 displacement. The conditions noted are these: membrane proteins or CHO cells expressing hCB2, read-out: CB2 binding Ki. On the procedure: Compound dilutions were carried out in duplicate in binding buffer [25 mM HEPES pH 7.4, 150 mM NaCl, 1 mM EDTA, 2 mM MgCl2, 0.25% BSA, […]]. Mix binding buffer, membrane proteins (or CHO cells expressing hCB2 receptors) together. Dispense 75 ul of mixture into each well in 96 well plates. Add 1 ul of drug in DMSO, or DMSO alone into each well. 1:500-1000 dilute the hot ligand [^3H]CP55,940 (specific activity=120 Ci/mmol; PerkinElmer Life and Analytical Sciences) in binding buffer and add 25 ul per well with either 5 ug/well cell membrane or 50000 cells/well. After incubation at room temperature for 2 hours, transfer the binding reaction onto filtration plates (UniFilter CF/C filter plate presoaked with 0.3% polyethylenimine; PerkinElmer Life and Analytical Sciences) using Packard Cell Harvester. Wash the filter with quarter strength of PBS (1:4 dilution of regular PBS with H2O) 8 times. Air dry the filter, add 40 ul MicroScint20 into each well, seal the top, and count with the TopCount. Bound radioactivity was analyzed for Ki using nonlinear regression analysis (Excel Xfit) with the Kd values for [3H]CP55,940 determined from saturation experiments.

Each structure is given as a SMILES string.

T2 sequence (P34972 whole entry): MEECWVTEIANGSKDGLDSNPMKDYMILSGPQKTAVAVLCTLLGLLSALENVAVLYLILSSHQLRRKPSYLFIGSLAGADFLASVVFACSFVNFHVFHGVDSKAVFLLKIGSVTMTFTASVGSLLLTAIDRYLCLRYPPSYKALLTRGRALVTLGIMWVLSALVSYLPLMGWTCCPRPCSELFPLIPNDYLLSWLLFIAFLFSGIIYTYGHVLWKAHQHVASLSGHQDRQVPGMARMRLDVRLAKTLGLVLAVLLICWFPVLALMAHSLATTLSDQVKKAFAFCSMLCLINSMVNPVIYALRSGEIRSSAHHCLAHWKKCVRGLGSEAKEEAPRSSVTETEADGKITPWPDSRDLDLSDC
T1 sequence (P34972 whole entry): as above

In general, EC50 refers to the midpoint of the concentration-response curve. A lower EC50 goes with a more potent agent. Broadly, the Ki is the equilibrium dissociation constant of an inhibitor or competing ligand from its target. Take `CC1(C)Cc2ccc(C#N)cc2[C@@H]1NC(=O)c1cc2cc(O)ccc2[nH]1` [Example 1, (R)—N-(6-Cyano-2,2-dimethyl-2,3-dihydro-1H-inden-1-yl)-5-hydroxy-1H-indole-2-carboxamide]: the EC50 in experiment [1] amounted to 2.4 ± 0.55 nM. The Ki on hCB2 receptors worked out at 3 nM.
For the compound `CC1(C)Cc2ccc(C#N)cc2[C@H]1NC(=O)c1cc2cc(O)ccc2[nH]1` [Example 1A, (S)—N-(6-Cyano-2,2-dimethyl-2,3-dihydro-1H-inden-1-yl)-5-hydroxy-1H-indole-2-carboxamide], the inhibitory constant (Ki) on hCB2 receptors stood at 1590 nM.
In turn, `CC1(C)Cc2ccc(C#N)cc2[C@@H]1NC(=O)c1cc2cc(Cl)ccc2[nH]1` [Example 2, (R)N-(6-Cyano-2,2-dimethyl-2,3-dihydro-1H-inden-1-yl)-5-chloro-1H-indole-2-carboxamide] gave an EC50 in experiment [1] of 2.2 ± 0.48 nM. Besides, the Ki on hCB2 receptors was found to be 0.71 ± 0.18 nM.
In experiment [1], `Cn1c(C(=O)N[C@H]2c3cc(C#N)ccc3CC2(C)C)cc2cc(Cl)ccc21` [Example 3, (R)-5-Chloro-N-(6-cyano-2,2-dimethyl-2,3-dihydro-1H-inden-1-yl)-1-methyl-1H-indole-2-carboxamide] registered an EC50 of 4.5 ± 1.2 nM. Moreover, the Ki on hCB2 receptors amounted to 7.6 ± 1.7 nM.
On the same counts, the results for `CN(C)CCn1c(C(=O)N[C@H]2c3cc(C#N)ccc3CC2(C)C)cc2cc(Cl)ccc21` [Example 4, (R)-5-Chloro-N-(6-cyano-2,2-dimethyl-2,3-dihydro-1H-inden-1-yl)-1-(2-(dimethylamino)ethyl)-1H-indole-2-carboxamide] are 8.1 ± 2.2 nM and 60 ± 26 nM.
Taken in the same sequence, the figures for `CC1(C)Cc2ccc(C#N)cc2[C@@H]1NC(=O)c1cc2cc(Cl)ccc2n1CCN1CCOCC1` [Example 5, (R)-5-Chloro-N-(6-cyano-2,2-dimethyl-2,3-dihydro-1H-inden-1-yl)-1-(2-morpholinoethyl)-1H-indole-2-carboxamide] were 7.8 ± 2.5 nM and 39 ± 14 nM.
For the compound `CC1(C)Cc2ccc(C#N)cc2[C@@H]1NC(=O)c1cc2ccccc2[nH]1` [Example 6, (R)—N-(6-Cyano-2,2-dimethyl-2,3-dihydro-1H-inden-1-yl)-1H-indole-2-carboxamide], the inhibition constant (Ki) at hCB2 receptors was determined as 2.4 ± 1.1 nM.
Same read-out and setting: the result for `CC1(C)Cc2ccc(C#N)cc2[C@@H]1NC(=O)c1cc2cc(F)ccc2[nH]1` [Example 7, (R)—N-(6-Cyano-2,2-dimethyl-2,3-dihydro-1H-inden-1-yl)-5-fluoro-1H-indole-2-carboxamide] reads 0.24 ± 0.12 nM; that for `CC1(C)Cc2ccc(C#N)cc2[C@@H]1NC(=O)c1cc2cc([N+](=O)[O-])ccc2[nH]1` [Example 8, (R)—N-(6-Cyano-2,2-dimethyl-2,3-dihydro-1H-inden-1-yl)-5-nitro-1H-indole-2-carboxamide], 4.2 ± 1.6 nM; that for `CC1(C)Cc2ccc(C#N)cc2[C@@H]1NC(=O)c1cc2cc(N)ccc2[nH]1` [Example 9, (R)-5-Amino-N-(6-cyano-2,2-dimethyl-2,3-dihydro-1H-inden-1-yl)-1H-indole-2-carboxamide], 39 ± 14 nM.
For the compound `COCCNc1ccc2[nH]c(C(=O)N[C@H]3c4cc(C#N)ccc4CC3(C)C)cc2c1` [Example 10, (R)—N-(6-Cyano-2,2-dimethyl-2,3-dihydro-1H-inden-1-yl)-5-(2-methoxyethylamino)-1H-indole-2-carboxamide], the inhibition constant Ki at hCB2 receptors stood at 50 ± 16 nM.
On the same count and under the same terms, next, `COC(=O)c1ccc2c(c1)[C@H](NC(=O)c1cc3cc(Cl)ccc3[nH]1)C(C)(C)C2` [Example 11, (R)-Methyl-3-(5-chloro-1H-indole-2-carboxamido)-2,2-dimethyl-2,3-dihydro-1H-indene-5-carboxylate]: 35 ± 12 nM.
